The text below walks through data of paper PMC11378298 (ACS Chemical Neuroscience, 2024).

By IC50 is commonly meant the point on the concentration scale where inhibition reaches its midpoint. Read a high IC50 as weaker potency in that assay. Usually Papp stands for the rate of passage across a membrane or cell layer, normalised by area and donor concentration. Higher therefore signals fast passage.

“And” between values parts separate entries of the source, which are not always exact repeats. Equal values may be shown once.

The conditions of data set [1]: PAMPA; for permeability classification: versus caffeine. Background: The PAMPA barrier holds no transporters, so it reflects passive diffusion.
Data set [2] concerns the target T1, GSK-3β (Homo sapiens, UniProt P49841). The data set can be described thus: biochemical. The method, then: (§1) We evaluated the pharmacological properties of the compounds in vitro against GSK-3β using the GSK-3β Kinase Enzyme System followed by ADP-Glo bioluminescent assay.[50] The principle of the assay is to determine the amount of ADP formed from ATP in the kinase reaction. […] Additionally, compounds 11 and 36 in complex with GSK-3β were analyzed by the proteins’ melting temperature determination using Thermal Shift Assay (see Figure S1 in the SI).
The inhibitory activities of the tested compounds against the GSK-3β human recombinant kinase were measured using Promega’s GSK-3β Kinase Enzyme System (Promega; Madison, WI, USA), according to the provided manufacturer’s instruction, using the low-volume white polystyrene 384-well plates. The ADP-Glo Assay (Promega; Madison, WI, USA) was used for bioluminescent detection of the kinase activity. Tested compounds were prepared as 1 mM stock solutions in DMSO and diluted with the Kinase Assay Buffer before use (40 mM Tris, pH 7.5, enriched with 50 μM dithiothreitol; DTT) to obtain the desired compounds’ concentrations. The kinase enzyme, GSK-3β-substrate (derived from human muscle glycogen synthase 1), and ATP were also diluted in the assay buffer before use. At first, GSK-3β (10 ng per well) was incubated with the tested sample (10 μM in well) for 5 min. In the case of blank wells, the DMSO solution (1% in well) was used instead of the target samples’ solutions. After the incubation period, ATP (25 μM in well) and GSK-3β-substrate (0.2 μg/μL in well) were added to start the enzymatic reaction. The reaction mixture was kept at room temperature for 1 h, followed by the addition of the ADP-Glo reagent, to terminate the kinase reaction and deplete any remaining ATP. After the following 40 min—a second reagent (Kinase Detection Reagent) was applied to convert the obtained ADP to ATP and to generate light from the newly synthesized ATP using a luciferase/luciferin reaction. The mixture was kept for another 30 min at room temperature, then the luminescence was measured. Based on equation 100 – (S/B) × 100 (where S and B were the respective enzyme activities with and without the tested sample, respectively) the percent of inhibition of GSK-3β for each compound was calculated. […] Calculations were made using nonlinear regression (GraphPad Prism 9; GraphPad Software, San Diego, CA, USA) by plotting the residual enzyme activities against the applied inhibitor concentration. […] Each data point was collected in triplicate.
Target sequence in this assay (P49841 whole entry): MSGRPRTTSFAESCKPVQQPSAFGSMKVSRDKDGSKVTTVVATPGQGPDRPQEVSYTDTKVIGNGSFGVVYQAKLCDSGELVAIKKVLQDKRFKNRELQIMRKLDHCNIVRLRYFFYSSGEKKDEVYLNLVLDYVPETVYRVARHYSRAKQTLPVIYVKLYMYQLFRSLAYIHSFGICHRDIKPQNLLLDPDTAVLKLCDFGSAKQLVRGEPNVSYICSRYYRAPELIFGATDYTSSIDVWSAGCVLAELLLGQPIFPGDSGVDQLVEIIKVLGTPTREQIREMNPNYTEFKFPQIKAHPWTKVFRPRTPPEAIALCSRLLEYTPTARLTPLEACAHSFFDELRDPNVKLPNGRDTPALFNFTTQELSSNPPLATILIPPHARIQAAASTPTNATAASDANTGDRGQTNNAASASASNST

The conditions of data set [3]: human liver microsomes; for % of the compound remaining after 2 h of incubation: 2 h (120 min), 37 °C. The procedure:
The primary site of drug metabolism in humans is the liver. Therefore, we used human liver microsomes (HLM) to determine the metabolic stability of selected compounds (Table 3). The compounds were incubated with HLMs for 2 h, and the resulting mixtures were analyzed with UPLC-MS (for details including the UPLC-MS spectra, see Table S10 and Figures S17–S22 in the SI).
All protocols used for the evaluation of drug-like properties (ADME-To parameters) were described in our previous works.[58],[89] Precoated PAMPA Plate System Gentest was obtained from Corning, (Tewksbury, MA, USA). The metabolic stability assay was performed on human liver microsomes (HLMs, Sigma-Aldrich, St. Louis, MO, USA). The assays with microsomes were supported by MetaSite 6.0.1 software (Molecular Discovery Ltd. Hertfordshire, UK). To predict potential drug–drug interactions (DDIs) the influence on CYP3A4, CYP2D6, and CYP2C9 were carried with use of respective P450-Glo kit (Promega, Madison, WI, USA). The luminescence signal and absorbance were measured by using a microplate reader EnSpire PerkinElmer (Waltham, MA, USA). The LC/MS/MS analyses used in PAMPA and the assays with use of HLMs were obtained on Waters ACQUITY TQD system (Waters, Milford, CT, USA). […] Statistical significances and IC50 values were calculated by Graph Pad Prism 9 software.
Table S9. Differences in binding energies given for methods in gas and water environment.
Method gas [kcal/mol] water [kcal/mol]
Metabolic stability of compounds 11 and 36 in human liver microsomes (HLMs)
Table S10. The molecular masses and metabolic pathways of compounds 11 and 36 determined using human liver microsomes.
Substrate mass % mass of the Metabolic pathway*
(m/z) remaining metabolite
*most probable metabolic pathways were estimated by MS analyses supported by in silico prediction using MetaSite 6.0.1 and ADMET Predictor tools
Figure S17. The MetaSite 6.0.1. software prediction of the most probabl e sites of compounds’ 11 and 36 metabolism. The darker the red color - the higher the probability of being involved […]
On the technique in general: Liver microsomes are vesicles of endoplasmic reticulum, rich in cytochrome P450 enzymes.

The next data set relates to HT-22 cells. In words: Okadaic acid-induced hyperphosphorylation model, cell viability. The class given is cell-based, mouse. As to conditions: for increase in cells' viability after okadaic acid: okadaic acid 400 nM 3 h, viability after 24 h. The procedure:
Thus, it is used in a cell model of hyperphosphorylated tau-induced neurodegeneration.[53],[54] […] The test was performed on the HT-22 cell line treated with okadaic acid at the concentration of 400 nM and the compounds at the concentration of 0.1, 1, and 10 μM. Cell viability was measured by the PrestoBlue cell viability reagent.
Cell viability was determined by Presto Blue assay after 24 h. (B) Effect of compounds 11, 34, and 36 (0.1, 1, 10 μM) on NO-release (%) in LPS-treated (100 ng/mL) BV-2 cell line. NO-release was measured using a fluorometric assay with 2,3-diaminonaphthalene (DAN). (C, D) Effects of compounds 11 and 36 (0.1, 1, 10 μM) on IL-6 and TNF-α release in LPS-treated (100 ng/mL) BV-2 cell line. The IL-6 and TNF-α levels were measured using LANCE Ultra TR-FRET Detection Kit (PerkinElmer). Statistical analysis was performed using GraphPad Prism 9.0.0. All values are expressed as mean with SD. Differences among groups were evaluated by one-way ANOVA followed by posthoc analysis (Dunnett’s multiple comparison tests) vs. control group (LPS on BV-2 cells and okadaic acid on HT-22 cells) and were considered statistically significant if p < 0.05 (*p < 0.05, **p < 0.01, ***p < 0.001, and ****p < 0.0001).
HT-22 cells were treated with okadaic acid (Merck): 400 nM for 3 h. After this time, the 10, 1, and 0.1 μM of tested compounds or DMSO were added and incubated in the aseptic condition (37 °C, 5% CO2). Cell viability was determined by Presto Blue assay after 24 h.

A short description of the next data set: in vitro. The conditions noted are these: PAMPA.
In data set [4] the target is T1, GSK-3β. In words: biochemical. The conditions noted are these: read-out: increase of the melting point of the protein. The method, then: as §1
Target sequence in this assay (P49841 26-383): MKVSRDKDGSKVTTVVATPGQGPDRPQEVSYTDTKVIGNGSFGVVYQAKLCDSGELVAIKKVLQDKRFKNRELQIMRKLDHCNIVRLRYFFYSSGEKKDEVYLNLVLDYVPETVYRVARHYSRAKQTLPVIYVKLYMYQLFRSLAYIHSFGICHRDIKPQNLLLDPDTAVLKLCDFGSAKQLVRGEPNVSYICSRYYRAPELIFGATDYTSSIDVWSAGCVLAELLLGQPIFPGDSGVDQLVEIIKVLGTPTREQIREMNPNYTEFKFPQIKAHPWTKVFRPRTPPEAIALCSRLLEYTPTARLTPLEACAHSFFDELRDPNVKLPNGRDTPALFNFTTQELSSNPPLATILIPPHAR

On to `NC(=O)N1CC=C(c2ccnc(NC(=O)C3CC3)c2)C1` [Compound 11, 3-(2-(Cyclopropanecarboxamido)pyridin-4-yl)-2,5-dihydro-1H-pyrrole-1-carboxamide], for which, in data set [1], the permeability classification result is recorded as “might not penetrate through the biological membranes”. The compound also came in with an IC50 at GSK-3β [2] of 141 ± 5 nM. Besides, in data set [3], the “% of the compound remaining after 2 h of incubation” value was 100%. Further, the “increase in cells' viability after okadaic acid” value in the data set with HT-22 cells (compound 1 μM) and with HT-22 cells (compound 10 μM) was “statistically significant effect” throughout. In the data set “in vitro”, this compound came in with a Papp of 0.53 ± 0.82 ×10⁻⁶ cm/s. For the same compound, the ΔTm at 10 µM on GSK-3β [4] turned out to be 13 °C.
Turning to `O=C(Nc1cc(-c2ccc(-c3ncon3)s2)ccn1)C1CC1` [Compound 36, N-(4-(5-(1,2,4-Oxadiazol-3-yl)thiophen-2-yl)pyridin-2-yl)cyclopropanecarboxamide], the permeability classification entry in data set [1] is listed as “well permeable”. This compound also showed a Pe in data set [1] (unit not given) of 9.4. For the same compound, on GSK-3β [2], the IC50 was 70 ± 1 nM. For the same compound, in data set [3] (2 h), the “% of the compound metabolized” value stood at 11%. Besides, the “% of the compound remaining after 2 h of incubation” value in data set [3] is 88.61% and 88.6%. Further, in the data set on HT-22 cells (compound 10 μM), the “increase in cells' viability after okadaic acid” value is “statistically significant effect”. The “cell viability after okadaic acid treatment” value in the data set with HT-22 cells (concentration not stated) was “restored cell viability”. This compound showed a Papp in the data set “in vitro” of 9.4 ± 0.89 ×10⁻⁶ cm/s. Further, the ΔTm at 10 µM on GSK-3β [4] was found to be 14 °C.
